In US20250339396A1 (COSMAS THERAPEUTICS DEVELOPMENT INC., priority 2021, published 2025):

Experiments:
[1] = Oral bioavailability and brain penetrance of UCM765 and UCM924
[2] = in vivo; cited from earlier work
[3] = in vivo; cited from earlier work; remark: listed apart in the source
[4] = Stability of Prodrug D in solvents by HPLC; assay type: physicochemical; conditions: HPLC Method 2
Procedure: For this test, we used HPLC with different solvent systems. […] Therefore, after initial assessment, this method was used for the remaining tests. Prodrug D or UCM924 (comparator) were dissolved in the different solvents listed in the table below and, after the waiting period indicated, HPLC tests were carried out according to the above. The results are shown in the table below, in which the percentages represent the quantity of prodrug D or UCM924 detected in the samples.

[5] = Pharmacokinetic study in male rats (UCM924 measured in plasma); assay type: in vivo; conditions: Sprague-Dawley, rat, po, UCM924 plasmatic level, UCM924 20 mg/kg per os
Procedure: In vivo pharmacokinetic studies of prodrug D were carried in male rats (Sprague-Dawley, weight 210-214 grams) and male dogs (Beagles, weight 8960-9820 grams). Animals were housed under standard conditions and had free access to water and standard laboratory diet. Care and husbandry of animals were in conformity with the institutional guidelines, in compliance with national and international laws and policies (EEC Council Directive 86/609, OJL 358m, 1, Dec. 122, 1987; NIH Guide for the care and Use of Laboratory Animals, NIH Publication No. 86-23, 1985). The compounds were dissolved in water containing 40% PEG 400 at a concentration of 15 mg/ml (clear solution) for the PO dose for Dog, or in water containing 40% PEG 400 at a concentration of 12.5 mg/ml (clear solution) for the PO dose for Rat. Rats were randomly assigned to treatment groups (n=3) and received a single oral administration (50 mg/kg) of Prodrug D and the level of the active metabolite UCM924 was then measured. Serial blood samples (200 uL) were collected from caudal vein at 5, 15, 30, 60, 120, 240, 360, 480 and 1440 min after PO administration. Blood samples were collected into a prechilled commercial tube (Jiangsu Kangjian medical supplies co., LTD) containing Potassium (K2) EDTA (0.85-1.15 mg). […] UCM924 (20 mg/kg) was also administered per os in rats and IV in dogs (2 mg/kg) and it was measured in plasma. […]

[6] = Pharmacokinetic study in male Beagle dogs (UCM924 measured in plasma); assay type: in vivo; conditions: dog, UCM924 plasmatic level, UCM924 2 mg/kg IV
Procedure: In vivo pharmacokinetic studies of prodrug D were carried in male rats (Sprague-Dawley, weight 210-214 grams) and male dogs (Beagles, weight 8960-9820 grams). Animals were housed under standard conditions and had free access to water and standard laboratory diet. Care and husbandry of animals were in conformity with the institutional guidelines, in compliance with national and international laws and policies (EEC Council Directive 86/609, OJL 358m, 1, Dec. 122, 1987; NIH Guide for the care and Use of Laboratory Animals, NIH Publication No. 86-23, 1985). The compounds were dissolved in water containing 40% PEG 400 at a concentration of 15 mg/ml (clear solution) for the PO dose for Dog, or in water containing 40% PEG 400 at a concentration of 12.5 mg/ml (clear solution) for the PO dose for Rat. Dogs were randomly assigned to treatment groups (n=3) and received a single oral administration (15 mg/kg) through oral gavage of Prodrug D and the level of the active metabolite UCM924 was then measured. Serial blood samples (200 uL) were collected from caudal vein at 5, 15, 30, 60, 120, 240, 360, 480 and 1440 min after PO administration. […] UCM924 (20 mg/kg) was also administered per os in rats and IV in dogs (2 mg/kg) and it was measured in plasma. […]

Kp ([1]; brain): 2.5
bioavailability ([1]; in vivo, po): 6%
quantity detected in the sample by HPLC ([4]; 1N HCl, overnight at rt, pH ~0): 14.79%
quantity detected in the sample by HPLC ([4]; 40% PEG400:60% H2O, overnight at rt, pH ~7.0): 40.16%
quantity detected in the sample by HPLC ([4]; H2O, overnight at rt, pH ~7.0): 80.09%
quantity detected in the sample by HPLC ([4]; Saturated NaHCO3aq, 2 h at rt, pH ~8.5): 62.33%
AUC(0-t) [5]: 97.7 ± 61 ng·h/mL
Cmax [5]: 42 ± 34 ng/mL
AUC(0-t) [6]: 1690 ± 275 ng·h/mL
half-life [6]: 1.79 ± 0.4 h
Structure (SMILES): CC(=O)NCCN(c1ccc(F)cc1)c1cccc(Br)c1 [UCM924, N-{2-[(3-bromophenyl)-(4-fluorophenyl)amino]ethyl}acetamide]
antinociceptive properties in tests for chronic neuropathic pain [2]: potent antinociceptive properties
motor impairments in the RotaRod test [3]: did not produce any motor impairments
